Source: PMC4712073 (Analytical and bioanalytical chemistry, 2015)
Read-outs that look alike come from different tables or passages of the source.

Columns and labels:
[1] = molecular target: T1, SIRT5 (Homo sapiens, UniProt Q9NXA8); conditions: reported as SIRT5 inhibitor; cited from earlier work
T1 sequence (Q9NXA8 37-310): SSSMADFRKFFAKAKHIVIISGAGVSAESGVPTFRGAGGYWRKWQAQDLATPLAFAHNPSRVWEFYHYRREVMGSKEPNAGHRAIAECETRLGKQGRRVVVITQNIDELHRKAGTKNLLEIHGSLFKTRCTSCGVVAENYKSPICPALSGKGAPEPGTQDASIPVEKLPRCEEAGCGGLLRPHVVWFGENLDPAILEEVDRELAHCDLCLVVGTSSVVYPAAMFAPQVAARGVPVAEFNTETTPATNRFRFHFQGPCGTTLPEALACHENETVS

[2] = molecular target: T1, SIRT5; assay: Peptide-based SIRT5 desuccinylation assay by droplet microchip electrophoresis; type: biochemical

In the case of `N#C/C(=C\c1ccc(-c2cc(Cl)ccc2Cl)o1)C(=O)Nc1cccc2ncccc12` [AGK-2], the IC50 [1] is given as > 100 µM.

With `CCCCCCCCCCCCCCCc1cccc(O)c1C(=O)O` [anacardic acid] the “SIRT5 inhibition (in words)” value ([2]; pilot screening, chosen as positive control (10 µM)) was “potent inhibitor”.

For `CCCCCC[C@H]1C(=O)O[C@H](C)[C@H](NC(=O)c2cccc(NC=O)c2O)C(=O)O[C@@H](C)[C@@H]1OC(=O)CC(C)C` [antimycin A], the IC50 ([2]; Prestwick hits, dose-response analysis 0.1 to 100 µM) was “near the maximum tested dose”.
